We go through 18 compounds from patent US20240368214A1, “POSITIVE NMDA-MODULATING COMPOUNDS AND METHODS OF USE THEREOF” (SAGE THERAPEUTICS, INC., priority 2021, published 2024).

Like-named read-outs stand apart in the source and are kept apart here.

In the test the target is T1, recombinant human GluN1/GluN2A receptor (Homo sapiens, UniProt Q05586+Q12879).
T1 construct: expressed in transfected cells; host or cells: HEK293, tetracycline-inducible expression
Kind of test: Whole-cell patch clamp of mammalian cells (Syncropatch 384i), NMDA modulation. In kind it is cell-based. Put shortly: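 Modulation read as fold rise in peak current, (Icomp/Icontrol)−1, from 8 concentrations with ≥2 wells each, four-parameter fit. Compound pre-incubated 120 s then co-applied with 1 μM glutamate plus 100 μM glycine; tetracycline-inducible HEK293 GluN1/GluN2A cells clamped at −80 mV.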

Setting [1] is: Table C-2, HEK293 cells, human GluN1/GluN2A, glutamate 1 μM / glycine 100 μM, -80 mV, peak amplitude increase.
Where [2] appears, read: Table C-2, HEK293 cells, human GluN1/GluN2A, glutamate 1 μM / glycine 100 μM, -80 mV, peak amplitude increase, read-out: EC50.
[3] abbreviates: Table E-2, HEK293 cells, human GluN1/GluN2A, glutamate 1 μM / glycine 100 μM, -80 mV, peak amplitude increase, read-out: EC50.

T1 sequence (Q12879 23-1464, other chains not shown): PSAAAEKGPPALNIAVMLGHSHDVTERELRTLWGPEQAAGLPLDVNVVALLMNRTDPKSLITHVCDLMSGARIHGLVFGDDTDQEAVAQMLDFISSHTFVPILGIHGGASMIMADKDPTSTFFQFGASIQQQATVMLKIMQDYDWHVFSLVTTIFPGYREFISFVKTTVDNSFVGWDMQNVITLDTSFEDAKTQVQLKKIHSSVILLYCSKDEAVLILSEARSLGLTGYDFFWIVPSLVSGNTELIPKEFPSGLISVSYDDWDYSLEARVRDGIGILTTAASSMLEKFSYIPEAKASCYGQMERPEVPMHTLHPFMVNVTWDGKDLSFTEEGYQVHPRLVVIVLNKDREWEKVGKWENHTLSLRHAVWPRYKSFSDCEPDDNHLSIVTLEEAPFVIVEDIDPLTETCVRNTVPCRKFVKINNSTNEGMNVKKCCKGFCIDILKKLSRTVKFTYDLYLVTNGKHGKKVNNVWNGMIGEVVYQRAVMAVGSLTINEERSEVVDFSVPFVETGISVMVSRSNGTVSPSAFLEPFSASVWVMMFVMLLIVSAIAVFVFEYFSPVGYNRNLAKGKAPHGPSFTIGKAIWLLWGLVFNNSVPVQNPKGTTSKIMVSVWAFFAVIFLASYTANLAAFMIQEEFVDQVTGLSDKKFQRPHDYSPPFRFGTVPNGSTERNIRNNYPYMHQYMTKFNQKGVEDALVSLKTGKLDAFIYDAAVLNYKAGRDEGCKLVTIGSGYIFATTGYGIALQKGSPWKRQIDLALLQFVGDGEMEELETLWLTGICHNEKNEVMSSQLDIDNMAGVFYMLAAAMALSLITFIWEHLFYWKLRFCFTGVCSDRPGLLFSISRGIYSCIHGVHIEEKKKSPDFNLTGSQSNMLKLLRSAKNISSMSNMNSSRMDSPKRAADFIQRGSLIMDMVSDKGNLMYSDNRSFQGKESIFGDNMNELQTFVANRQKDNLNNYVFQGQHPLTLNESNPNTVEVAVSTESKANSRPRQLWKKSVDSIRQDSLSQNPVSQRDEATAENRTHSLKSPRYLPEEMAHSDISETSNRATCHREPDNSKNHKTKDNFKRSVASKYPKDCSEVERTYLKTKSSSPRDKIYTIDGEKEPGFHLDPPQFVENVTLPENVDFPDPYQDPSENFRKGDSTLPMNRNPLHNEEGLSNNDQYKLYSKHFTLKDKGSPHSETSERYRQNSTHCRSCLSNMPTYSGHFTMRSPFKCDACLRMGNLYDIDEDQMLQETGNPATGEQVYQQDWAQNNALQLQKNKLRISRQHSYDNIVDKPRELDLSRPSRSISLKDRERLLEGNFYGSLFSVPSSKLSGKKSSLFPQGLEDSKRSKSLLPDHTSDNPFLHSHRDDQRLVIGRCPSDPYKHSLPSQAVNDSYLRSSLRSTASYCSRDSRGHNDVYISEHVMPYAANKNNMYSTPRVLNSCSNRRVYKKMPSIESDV

Broadly, the Emax is the maximal effect, on the per cent scale that the assay sets. One may read the EC50 as the midpoint of the concentration-response curve. In the case of `CC[C@@H](C#N)[C@@H](O)CC[C@@H](C)[C@H]1CC[C@H]2[C@@H]3CC[C@H]4C[C@](O)(CC)CC[C@]4(C)[C@H]3CC[C@]12C` [Compound C-8, (25,3S,6R)-2-ethyl-6-((3S,5S,8R,9S,10S,13R,14S,17R)-3-ethyl-3-hydroxy-10,13-dimethylhexadecahydro-1H-cyclopenta[a]phenanthren-17-yl)-3-hydroxyheptanenitrile], under setting [1], the Emax is less than 100%. In addition, the EC50 under setting [2] was 1 to 100 nM. On to `COC[C@]1(O)CC[C@@]2(C)[C@@H](CC[C@@H]3[C@@H]2CC[C@]2(C)[C@@H]([C@H](C)CC[C@@H](O)C(C)(C)C#N)CC[C@@H]32)C1` [Compound C-9, (3R,6R)-3-hydroxy-6-((3S,5S,8R,9S,10S,13R,14S,17R)-3-hydroxy-3-(methoxymethyl)-10,13-dimethylhexadecahydro-1H-cyclopenta[a]phenanthren-17-yl)-2,2-dimethylheptanenitrile], for which the Emax under setting [1] was less than 100%. Further, under setting [2], the EC50 fell in the range of 1 to 100 nM. As to `CC[C@]1(O)CC[C@@]2(C)[C@@H](CC[C@@H]3[C@@H]2CC[C@]2(C)[C@@H]([C@H](C)CC[C@H](O)CC#N)CC[C@@H]32)C1` [Compound C-10, (3S,6R)-6-((3S,5S,8R,9S,10S,13R,14S,17R)-3-ethyl-3-hydroxy-10,13-dimethylhexadecahydro-1H-cyclopenta[a]phenanthren-17-yl)-3-hydroxyheptanenitrile], under setting [1], the Emax was less than 100%. Moreover, the EC50 under setting [2] lay in the range of 100 to 500 nM. On to `CC[C@]1(O)CC[C@@]2(C)[C@@H](CC[C@@H]3[C@@H]2CC[C@]2(C)[C@@H]([C@H](C)CC[C@@H](O)CC#N)CC[C@@H]32)C1` [Compound C-11, (3R,6R)-6-((3S,5S,8R,9S,10S,13R,14S,17R)-3-ethyl-3-hydroxy-10,13-dimethylhexadecahydro-1H-cyclopenta[a]phenanthren-17-yl)-3-hydroxyheptanenitrile], for which, under setting [1], the Emax was in the range of 100 to 200%. For the same compound, the EC50 under setting [2] lay in the range of 1 to 100 nM. In the case of `CC[C@]1(O)CC[C@@]2(C)C(=CC[C@H]3[C@@H]4CC[C@H]([C@H](C)CC[C@@H](O)C(C)(C)C#N)[C@@]4(C)CC[C@@H]32)C1` [Compound C-12], the EC50 is 1 to 100 nM. The Emax under setting [1] was more than 200%.

As to `CC[C@]1(O)CC[C@@]2(C)C(=CC[C@H]3[C@@H]4CC[C@H]([C@H](C)CC[C@H](O)C(C)(C)C#N)[C@@]4(C)CC[C@@H]32)C1` [Compound C-13, (3S,6R)-6-((3S,8S,9S,10R,13R,14S,17R)-3-ethyl-3-hydroxy-10,13-dimethyl-2,3,4,7,8,9,10,11,12,13,14,15,16,17-tetradecahydro-1H-cyclopenta[a]phenanthren-17-yl)-3-hydroxy-2,2-dimethylheptanenitrile], the Emax under setting [1] lay within 100 to 200%. Besides, under setting [2], the EC50 was 1 to 100 nM. In the case of `CC[C@]1(O)CC[C@@]2(C)C(=CC[C@H]3[C@@H]4CC[C@H]([C@H](C)CC[C@H](O)C5(C#N)CCC5)[C@@]4(C)CC[C@@H]32)C1` [Compound C-18, 1-((1S,4R)-4-((3S,8S,9S,10R,13R,14S,17R)-3-ethyl-3-hydroxy-10,13-dimethyl-2,3,4,7,8,9,10,11,12,13,14,15,16,17-tetradecahydro-1H-cyclopenta[a]phenanthren-17-yl)-1-hydroxypentyl)cyclobutane-1-carbonitrile], the EC50 under setting [2] lay in the range of 100 to 500 nM. For `CC[C@]1(O)CC[C@@]2(C)C(=CC[C@H]3[C@@H]4CC[C@H]([C@H](C)CC[C@@H](O)C5(C#N)CCC5)[C@@]4(C)CC[C@@H]32)C1` [Compound C-19, 1-((1R,4R)-4-((3S,8S,9S,10R,13R,14S,17R)-3-ethyl-3-hydroxy-10,13-dimethyl-2,3,4,7,8,9,10,11,12,13,14,15,16,17-tetradecahydro-1H-cyclopenta[a]phenanthren-17-yl)-1-hydroxypentyl)cyclobutane-1-carbonitrile], the EC50 under setting [2] was in the range of 1 to 100 nM. On to `CC[C@]1(O)CC[C@@]2(C)C(=CC[C@H]3[C@@H]4CC[C@H]([C@H](C)CC[C@H](O)C5(C#N)CC5)[C@@]4(C)CC[C@@H]32)C1` [Compound C-20, 1-((1S,4R)-4-((3S,8S,9S,10R,13R,14S,17R)-3-ethyl-3-hydroxy-10,13-dimethyl-2,3,4,7,8,9,10,11,12,13,14,15,16,17-tetradecahydro-1H-cyclopenta[a]phenanthren-17-yl)-1-hydroxypentyl)cyclopropane-1-carbonitrile], for which the EC50 under setting [2] lay in the range of 100 to 500 nM. For the compound `CC[C@]1(O)CC[C@@]2(C)C(=CC[C@H]3[C@@H]4CC[C@H]([C@H](C)CC[C@@H](O)C5(C#N)CC5)[C@@]4(C)CC[C@@H]32)C1` [Compound C-21, 1-((1R,4R)-4-((3S,8S,9S,10R,13R,14S,17R)-3-ethyl-3-hydroxy-10,13-dimethyl-2,3,4,7,8,9,10,11,12,13,14,15,16,17-tetradecahydro-1H-cyclopenta[a]phenanthren-17-yl)-1-hydroxypentyl)cyclopropane-1-carbonitrile], under setting [2], the EC50 lay in the range of 1 to 100 nM. In the case of `C[C@H](CC[C@H](O)C1(C#N)CC1)[C@H]1CC[C@H]2[C@@H]3CC=C4C[C@@](C)(O)CC[C@]4(C)[C@H]3CC[C@]12C` [Compound C-22, 1-((1S,4R)-1-hydroxy-4-((3S,8S,9S,10R,13R,14S,17R)-3-hydroxy-3,10,13-trimethyl-2,3,4,7,8,9,10,11,12,13,14,15,16,17-tetradecahydro-1H-cyclopenta[a]phenanthren-17-yl)pentyl)cyclopropane-1-carbonitrile], the Emax under setting [1] was less than 100%. Under setting [2], the EC50 is 1 to 100 nM. Regarding `C[C@H](CC[C@@H](O)C1(C#N)CC1)[C@H]1CC[C@H]2[C@@H]3CC=C4C[C@@](C)(O)CC[C@]4(C)[C@H]3CC[C@]12C` [Compound C-23, 1-((1R,4R)-1-hydroxy-4-((3S,8S,9S,10R,13R,14S,17R)-3-hydroxy-3,10,13-trimethyl-2,3,4,7,8,9,10,11,12,13,14,15,16,17-tetradecahydro-1H-cyclopenta[a]phenanthren-17-yl)pentyl)cyclopropane-1-carbonitrile], the EC50 under setting [2] was 1 to 100 nM. For the compound `C[C@H](CC[C@@H](O)C1(C#N)CCC1)[C@H]1CC[C@H]2[C@@H]3CC=C4C[C@@](C)(O)CC[C@]4(C)[C@H]3CC[C@]12C` [Compound C-24, 1-((1R,4R)-1-hydroxy-4-((3S,8S,9S,10R,13R,14S,17R)-3-hydroxy-3,10,13-trimethyl-2,3,4,7,8,9,10,11,12,13,14,15,16,17-tetradecahydro-1H-cyclopenta[a]phenanthren-17-yl)pentyl)cyclobutane-1-carbonitrile], the EC50 under setting [2] lay within 1 to 100 nM. Consider `C[C@H](CC[C@H](O)C1(C#N)CCC1)[C@H]1CC[C@H]2[C@@H]3CC=C4C[C@@](C)(O)CC[C@]4(C)[C@H]3CC[C@]12C` [Compound C-25, 1-((1S,4R)-1-hydroxy-4-((3S,8S,9S,10R,13R,14S,17R)-3-hydroxy-3,10,13-trimethyl-2,3,4,7,8,9,10,11,12,13,14,15,16,17-tetradecahydro-1H-cyclopenta[a]phenanthren-17-yl)pentyl)cyclobutane-1-carbonitrile], for which the Emax under setting [1] is less than 100%. Further, under setting [2], the EC50 was 1 to 100 nM. As to `CC[C@]1(O)CC[C@]2(C)C3=CC[C@]4(C)[C@@H]([C@H](C)CC[C@H](O)C5(C#N)CC5)CC[C@H]4[C@@H]3CC[C@H]2C1` [Compound C-26, 1-((1S,4R)-4-((3S,5S,8S,10S,13R,14S,17R)-3-ethyl-3-hydroxy-10,13-dimethyl-2,3,4,5,6,7,8,10,12,13,14,15,16,17-tetradecahydro-1H-cyclopenta[a]phenanthren-17-yl)-1-hydroxypentyl)cyclopropane-1-carbonitrile], the EC50 is 1 to 100 nM under setting [2] and 1 to 100 nM under setting [3].

Take `CC[C@]1(O)CC[C@]2(C)C3=CC[C@]4(C)[C@@H]([C@H](C)CC[C@@H](O)C5(C#N)CC5)CC[C@H]4[C@@H]3CC[C@H]2C1` [Compound C-27, 1-((1R,4R)-4-((3S,5S,8S,10S,13R,14S,17R)-3-ethyl-3-hydroxy-10,13-dimethyl-2,3,4,5,6,7,8,10,12,13,14,15,16,17-tetradecahydro-1H-cyclopenta[a]phenanthren-17-yl)-1-hydroxypentyl)cyclopropane-1-carbonitrile]: the EC50 is, setting by setting: under setting [2], 1 to 100 nM; under setting [3], 1 to 100 nM. As for `CC[C@]1(O)CC[C@]2(C)C3=CC[C@]4(C)[C@@H]([C@H](C)CC[C@@H](O)C(C)(C)C#N)CC[C@H]4[C@@H]3CC[C@H]2C1` [Compound C-28, (3R,6R)-6-((3S,5S,8S,10S,13R,14S,17R)-3-ethyl-3-hydroxy-10,13-dimethyl-2,3,4,5,6,7,8,10,12,13,14,15,16,17-tetradecahydro-1H-cyclopenta[a]phenanthren-17-yl)-3-hydroxy-2,2-dimethylheptanenitrile], the EC50 runs as follows: under setting [2], 1 to 100 nM; under setting [3], 1 to 100 nM. In the case of `CC[C@]1(O)CC[C@]2(C)C3=CC[C@]4(C)[C@@H]([C@H](C)CC[C@H](O)C(C)(C)C#N)CC[C@H]4[C@@H]3CC[C@H]2C1` [Compound C-29, (3S,6R)-6-((3S,5S,8S,10S,13R,14S,17R)-3-ethyl-3-hydroxy-10,13-dimethyl-2,3,4,5,6,7,8,10,12,13,14,15,16,17-tetradecahydro-1H-cyclopenta[a]phenanthren-17-yl)-3-hydroxy-2,2-dimethylheptanenitrile], the EC50 is, setting by setting: under setting [2], 1 to 100 nM; under setting [3], 1 to 100 nM.
